Data set [1] in a line: Solid state polarisation after DNP, followed by solid state 13C-NMR. The data set is classed as physicochemical. Conditions: DNP at 1.2 K, 3.35 T, microwave 93.89 GHz, trityl radical and Gd-chelate. An excerpt:
The level of polarisation may for instance be determined by solid state ^13C-NMR measurements in solid hyperpolarised ^13C-acetate, e.g. solid hyperpolarised ^13C-acetate obtained by dynamic nuclear polarisation (DNP) of ^13C-acetate. The solid state ^13C-NMR measurement preferably consists of a simple pulse-acquire NMR sequence using a low flip angle. The signal intensity of the hyperpolarised ^13C-acetate in the NMR spectrum is compared with signal intensity of ^13C-acetate in a NMR spectrum acquired before the polarisation process. The level of polarisation is then calculated from the ratio of the signal intensities of before and after polarisation.
The probe is inserted into the probe-retaining container, submerged in the liquid helium and irradiated with microwaves. The microwave frequency may be determined from the EPR line of the DNP agent, which depends on the magnetic field of the magnet as 28.0 GHz/T. The optimal microwave frequency may be determined by adjusting the frequency for maximal NMR signal. Preferably, the optimal microwave frequency is in the about 94 GHz for a magnet charged to 3.35 T, 110 GHz for a magnet charged to 4 T, 140 GHz for a magnet charged to 5 T and 200 GHz for a magnet charged to 7 T. The power may be chosen between 50 and 200 mW, dependent on the probe size. The level of polarisation may be monitored as earlier described by for instance acquiring solid state ^13C-NMR signals of the probe during microwave irradiation. Generally, a saturation curve is obtained in a graph showing NMR signal vs. time. […] A solid state ^13C-NMR measurement suitably consists of a simple pulse-acquire NMR sequence using a low flip angle. […] The polarisation is then calculated from the ratio of the signal intensities before and after DNP.
To a micro test tube was added sodium ^13C1-acetate (Aldrich, 24.9 mg, 0.30 mmol) and 16 μl water. […] Polarisation was followed by solid state ^13C-NMR and the solid state polarisation was determined to be more than 20%. […]

The nature of data set [2]: Liquid state polarisation of the dissolved imaging medium by liquid state 13C-NMR. The data set is classed as physicochemical. The conditions noted are these: for liquid state polarisation: liquid state 13C-NMR at 400 MHz, after 75 min DNP, dissolved in phosphate buffer pH 7, 50 mM. The method, then: In a similar way, the level of polarisation for dissolved hyperpolarised ^13C-acetate may be determined by liquid state NMR measurements. Again the signal intensity of the dissolved hyperpolarised ^13C-acetate is compared with the signal intensity of the dissolved ^13C-acetate before polarisation. The level of polarisation is then calculated from the ratio of the signal intensities of ^13C-acetate before and after polarisation. Hyperpolarisation of NMR active ^13C-nuclei may be achieved by different methods which are for instance described in described in WO-A-98/30918, WO-A-99/24080 and WO-A-99/35508, and which all are incorporated herein by reference and hyperpolarisation methods known in the art are polarisation transfer from a noble gas, “brute force”, spin refrigeration, the parahydrogen method and dynamic nuclear polarisation (DNP).
After 75 minutes of dynamic nuclear polarisation, the obtained frozen polarised composition was dissolved in 6 ml phosphate buffer (20 mM, pH 7, 100 mg/l EDTA, 0.9% NaCl). The pH of the final solution containing the dissolved composition was 7.3±0.1. The sodium ^13C1-acetate concentration in said final solution was 50 mM.
Liquid state polarisation was determined by liquid state ^13C-NMR at 400 MHz to be 19%.
After 75 minutes of dynamic nuclear polarisation, the obtained frozen polarised composition was dissolved in 6 ml phosphate buffer (20 mM, pH 7, 100 mg/l EDTA, 0.9% NaCl). The pH of the final solution containing the dissolved composition was 7.3±0.1. The TRIS-^13C1-acetate-d3 concentration in said final solution was 50 mM.
Liquid state polarisation was determined by liquid state ^13C-NMR at 400 MHz to be 32%.

Data set [3] deals with mouse myocardium. As to the kind of experiment: In vivo 13C-MR spectroscopy in mice (heart), conversion of hyperpolarised 13C-acetate to 13C-acetyl-CoA and 13C-acetylcarnitine. Set-up: species or system C57Bl/6 mouse. The procedure:
200 μl of an imaging medium which was prepared as described in Example 3a was injected into a C57Bl/6 mouse over a time period of 6 s. The TRIS-^13C1-acetate concentration in said imaging medium was 75 mM and the polarisation was 20% at the time of injection. A ^13C-surface coil (diameter 12 mm) was placed over the mouse myocardium. A rat ^1H-body coil was used for anatomical reference images and localised shimming. ^13C-MR spectroscopy was carried out with a 2.4 T Bruker spectrometer. A dynamic set of ^13C-MR spectra (in total 30) was acquired every 3 s with a 30 degree RF pulse. From this experiment a ^13C1-acetylcarnitine signal build-up over the time of the experiment was clearly seen (FIG. 1).
(§1) 200 μl of an imaging medium which was prepared as described in Example 3a was injected into a C57Bl/6 mouse over a time period of 6 s. The TRIS-^13C1-acetate concentration in said imaging medium was approx. 50 mM. In both experiments (n=2) a ^13C-surface coil (diameter 12 mm) was placed over the mouse myocardium and ^13C-MR spectroscopy was carried out in a 2.4 T Bruker spectrometer. A spectrum was acquired 10 s after the imaging medium had been injected with a 90 degree RF pulse. […] The ratio of ^13C1-acetylcarnitine to ^13C1-acetyl-CoA was roughly 3 times higher in the heart than in the liver, see Example 6.

In data set [4] the test system is mouse liver. As to the kind of experiment: In vivo 13C-MR spectroscopy in mice (liver), conversion of hyperpolarised 13C-acetate to 13C-acetyl-CoA and 13C-acetylcarnitine. Set-up: species or system C57Bl/6 mouse. The conditions noted are these: 200 μl of approx. 50 mM, spectrum 10 s after injection, 90 degree pulse, n=2 (FIG. 2, 3). The procedure: as §1, with “liver” for “myocardium”, “lower” for “higher”, “5.” for “6.”

Data on three compounds can be found in patent US20110243855A1, “METHOD AND IMAGING MEDIUM FOR USE IN THE METHOD” (priority 2007, published 2011).

Each structure is given as a SMILES string.

`C[13C](=O)[O-].[Na+]` [sodium ^13C1-acetate]: in data set [1], the solid state polarisation entry is on record as “more than 20%”. This compound also registered a liquid state polarisation in data set [2] of 19%.

Turning to `C[13C](=O)O.NC(CO)(CO)CO` [TRIS-^13C1-acetate], the solid state polarisation entry in data set [1] is on record as “more than 25%”. Moreover, the “polarisation at the time of injection” value in data set [2] (imaging medium 75 mM, at the time of injection into mouse) is reported as 20%. In data set [3] (200 μl of 75 mM injected over 6 s, 30 spectra every 3 s, 30 degree pulse, 2.4 T (FIG. 1)), the “13C1-acetylcarnitine signal build-up over the time of the experiment” value was “clearly seen”. The “identification of 13C1-acetyl-CoA and 13C1-acetylcarnitine” value in data set [3] (200 μl of approx. 50 mM, spectrum 10 s after injection, 90 degree pulse, n=2 (FIG. 2, 3)) is reported as “could be identified”; in data set [4], “could be identified”.

In the case of `NC(CO)(CO)CO.[2H]C([2H])([2H])[13C](=O)O` [TRIS-^13C1-acetate-d3], in data set [1], the solid state polarisation entry is recorded as “more than 25%”. The liquid state polarisation in data set [2] turned out to be 32%.
